Data set [1] concerns metastases of MDAY-D2 cells. Nature of the data set: liver metastases of MDAY-D2 cells (histology). It counts as in vivo, mice. Particulars: 500 μg/day; preliminary results. An excerpt:
(§1) In order to examine the ability of vanadyl compounds to reduce tumor formation, growth and metastases, a specific animal model which allows investigation of all of these processes in the same animal was chosen. This model involves the injection of a metastatic haematopoietic cell line, MDAY-D2, into mice subcutaneously. These cells form a tumor at the site of injection and its size can be easily determined. In addition, these cells metastasize to the liver and metastases can be detected histologically after day 17 to 19. This model provides a very sensitive and reproducible approach to investigate the effect of vanadyl compounds on tumor growth and metastases.
The metastatic liver was obtained from an animal 24 days following the administration MDAY-D2 cells. The nodules are quite numerous and large.
Livers were removed from animals treated as described above and prepared for histological examination. FIG. 16 compares liver sections from untreated (C), orthovanadate (VO)(500 μg/day) and vanadyl sulphate (VS)(500 μg/day) treated animals. Nodules are identified with an arrow.

The nature of data set [2]: toxicity of orthovanadate by route of administration. Format: in vivo, mice. An excerpt:
However, subcutaneous injections of up to 500 μgms orthovanadate is tolerated by the animals. Slow administration of the orthovanadate would decrease toxicity and the animals may tolerate higher doses.

The next data set deals with fos. Nature of the data set: fos / c-fos mRNA expression in chondrocytes (Northern blot). It counts as cell-based, bovine. Particulars: 100 μM. The essentials: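 Bovine articular chondrocytes incubated 1 h with IL-1, PMA or AA (3 μM), or treated with IL 1 ± DPI, or with H2O2 for 30, 60 and 90 min. Total RNA run on formaldehyde agarose gels and probed by Northern blot with c-fos, c-jun or collagenase cDNA.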

Another data set concerns MDAY-D2 tumor. Nature of the data set: MDAY-D2 tumor growth in vivo, orthovanadate, vanadyl sulphate, vanadyl hydroperoxide (Example 6B). More on the design: species or system mice.
Excerpt: as §1
In a separate experiment using the same animal model, the effect of orthovanadate, vanadyl sulphate and vanadyl hydroperoxide administration on tumor growth in vivo was examined. On Day 1, 20 mice were injected with 2×10^5 MDAY-D2 cell subcutaneously. The mice were divided into four groups of five mice. At day 5, the animals were injected subcutaneously with 50 μl of water alone or containing 10 mg/ml of orthovanadate, 10 mg/ml of vanadyl sulphate, or 10 mg/ml of vanadyl hydroperoxide. This treatment was continued daily for 16 days. At day 21, the mice were sacrificed and the tumors dissected and weighed.

The next data set deals with PGE2. Nature of the data set: PGE2 production by chondrocytes (RIA). It counts as cell-based, bovine. Particulars: 100 μM. Here is the method:
(§2) The effect of orthovanadate and N-acetylcysteine on fos, jun and collagenase expression were examined. Bovine articular chondrocytes were isolated and plated as previously described (Kandel R. A. et al. Biochim. Biophys. Acta. 1053, 130-134, 1990). In order to determine the effect of orthovanadate on IL 1 and PMA (phorbol ester) induced responses, chondrocytes were incubated with orthovanadate (100 μM) for 2 hours before stimulation with IL 1 (10 ng/ml) or PMA ([…]). Collagenase production was determined by incubating chondrocytes for 24 hours with IL 1 or PMA and the cell conditioned medium was assayed for collagenase activity using an ELISA procedure as described previously (Kandel et al. supra). PLA2 activity was measured by incorporating ^3 H-arachidonic acid (^3 H-AA) into the cells and then incubating the cells with medium containing 1 mg/ml BSA, either alone or in the presence of IL 1 or PMA, for 10 min. as previously described (Conquer, J. A. […], Biochim. Biophys. Acta. 1134, 1-6). The amount of ^3 H-AA liberated into the supernatant was determined. To measure PGE2 production, chondrocytes were incubated for 6 hours in Ham's F12 medium, either alone or with IL 1 or PMA. The supernatant was analyzed by RIA using an antibody specific for PGE2 (Dr. S. A. Jones, Mount Sinai Hospital, Toronto, Canada). […]

A further data set deals with jun. Nature of the data set: jun / c-jun mRNA expression in chondrocytes (Northern blot). Format: cell-based, bovine. Particulars: 100 μM.
Excerpt: The cytokine interleukin 1 (IL 1) has been used to identify the intermediate second messengers which regulate the expression of fos and jun.
Although IL 1 stimulated superoxide production, it was not known whether IL 1 induced fos and jun expression was dependent on the production of superoxides. In order to elucidate this possibility, the effect of DPI on fos and jun mRNA levels induced by IL 1 was investigated. RNA from chondrocytes treated with IL 1 in the presence and absence of DPI were analyzed by Northern blot analysis using either fos or collagenase cDNA probes. […] Similar data has been obtained for IL 1 induced jun expression. Furthermore, inhibition of fos and jun expression by DPI was sufficient to suppress IL 1 induced and constitutive collagenase expression.
as §2, with “To measure PGE2 production, chondrocytes were incubated for 6 hours in Ham's F12 medium, either alone or with IL 1 or PMA.” left out

Another data set has as its system MDAY-D2 cells. Nature of the data set: viability of MDAY-D2 cells. Format: cell-based, mouse. Particulars: 0-50 μM, 48 hours. The procedure: Fos and jun activity are also required for cellular proliferation in many tumor cell lines. Accordingly, the effect of orthovanadate on adherent cells and cell suspensions were examined. MDAY-D2 (a mouse lymphoid cell line grown in suspension) and HTB14 cells (an adherent human primary astrocytoma cell line) were incubated in media containing 0-50 μM orthovanadate for 48 hours. The cells were harvested and the number of viable cells determined.
Three different forms of vanadyl compounds were examined for their effect on viability of cancer cell lines. MDAY-D2 cells were incubated in media containing 0-50 μM orthovanadate, vanadyl sulphate, or vanadyl hydroperoxide for 48 hours. The cells were harvested and the number of viable cells determined. […] Although there were slight differences in sensitivity, the overall cell death was similar.

Regarding `[Na+].[Na+].[Na+].[O]=[V]([O-])([O-])[O-]` [orthovanadate, sodium orthovanadate], the metastases in liver result in data set [1] is recorded as “did not have detectable levels of metastases”. The “toxicity, oral administration” value in data set [2] (0.5 mg/ml oral) is recorded as “gastric toxicity”. For the same molecule, the “toxicity, intraperitoneal administration” value in data set [2] (high doses i.p.) is listed as “toxic to the animals”. Also, the tolerated subcutaneous injection entry in data set [2] (subcutaneous) is “up to 500 μgms”. Further, the “inhibition of IL 1, PMA and AA induced c-fos expression” value in the data set on fos is “completely inhibited”. Also, the detectable tumors entry in the data set with MDAY-D2 tumor (day 21) is listed as “one mouse did not have detectable tumors”. Moreover, in the data set with MDAY-D2 tumor (groups of five, 10 mg/ml, 50 μl daily s.c.), the animal deaths entry is recorded as “One animal died”. In the data set with MDAY-D2 tumor (mouse, in vivo), the “efficacy in reducing tumor growth” value is given as “most efficacy”. Moreover, the “inhibition of IL 1 or PMA induced PGE2 production” value with PGE2 is on record as “did not inhibit”. The “inhibition of IL 1, PMA and AA induced c-jun expression” value in the data set on jun is listed as “completely inhibited”. Moreover, the “toxicity to MDAY-D2 cells” value in the data set on MDAY-D2 cells is on record as “toxic”. The “killing of MDAY-D2 cells” value with MDAY-D2 cells (three forms compared) was “equally effective”.
